Assay results reported in US20210261495A1, “COMPOSITIONS AND METHODS OF USING ITACONIC ACID DERIVATIVES” (ERGON PHARMACEUTICALS, LLC, priority 2018, published 2021).

Columns and labels:
IRG1 = target: T1, IRG1 (Homo sapiens, UniProt A6NK06); test: Itaconic acid synthesis by LPS-stimulated macrophages (inhibition of IRG1), GC-MS; format: cell-based; details: LPS-stimulated hMDMs, 50, 100, 500 μM, LPS 8 hrs
T1 construct: Human monocytes, isolated from peripheral blood and differentiated into macrophages; endogenous in cells; host or cells: human monocyte-derived macrophages (hMDMs), M-CSF differentiated, LPS-stimulated
T1 sequence (A6NK06 1-481): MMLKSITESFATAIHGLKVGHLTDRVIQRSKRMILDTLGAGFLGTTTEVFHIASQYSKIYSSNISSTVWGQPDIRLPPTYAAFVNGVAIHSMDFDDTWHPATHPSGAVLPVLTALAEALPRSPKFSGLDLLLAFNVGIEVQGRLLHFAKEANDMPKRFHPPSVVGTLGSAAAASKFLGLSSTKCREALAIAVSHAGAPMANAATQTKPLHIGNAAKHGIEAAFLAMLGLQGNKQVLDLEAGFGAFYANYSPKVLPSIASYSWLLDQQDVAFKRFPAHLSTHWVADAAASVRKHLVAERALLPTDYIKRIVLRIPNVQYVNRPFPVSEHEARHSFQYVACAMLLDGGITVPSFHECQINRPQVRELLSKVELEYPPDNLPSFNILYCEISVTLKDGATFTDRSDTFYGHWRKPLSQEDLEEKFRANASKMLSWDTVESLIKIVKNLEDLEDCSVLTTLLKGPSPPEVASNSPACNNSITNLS
Experimental: Inhibition of IRG1. Itaconic acid levels are a measure of IRG1 expression/activity. To determine the activity of IRG, hMDMs were stimulated with 100 ng/mL LPS for 8 hrs in the presence or absence of the therapeutic agent. Gas chromatography-mass spectroscopy (GC-MS) was used to estimate the intracellular and extracellular concentration of the itaconic acid. In a typical assay, 1-5×10^6 cells were plated onto a 6-well plate and allowed to adhere overnight. The cells were then stimulated with 0.1-1 μg/mL LPS in the presence or absence of the compound of interest for 8 hrs. The cells were then washed and metabolites were extracted using methanol/water and acetonitrile additions. The aqueous phase of the mixture was dried and metabolites present were derivatized prior to the detection by GC-MS.
Itaconic Acid Synthesis by LPS-Stimulated Macrophages after Treatment with Compound (6). Human monocytes, isolated from peripheral blood and differentiated into macrophages in the presence of 100 ng/mL monocyte colony-stimulating factor (M-CSF) for 5 days, were plated onto a 6-well plate at a density of 1×10^6 cells/well. The cells were allowed to adhere overnight. […] Derivatized metabolites were analyzed by GC-MS. The amount of itaconic acid present in the samples was determined after peak integration. […]

hCD8^+ T cells = test: hCD8+ T cell differentiation into effector T cells: IFNγ release, ELISA; format: cell-based, human; details: for IFNγ (% Control): 24 hrs, normalized per number of cells
Experimental: Differentiation of T Cells. The ability of T cells to differentiate from a naïve to an effector state was assessed by measuring the levels of IFNγ or GZMB synthesis following activation of the cells using a cocktail of anti-CD2/anti-CD3/anti-CD28 antibodies. Expression of IFNγ, GZMB, and other effector cytokines was measured by determining their concentration in the conditioned media 24-72 hrs after initiation of activation or by estimating the % cells expressing these cytokines using fluorescence-activated cell sorting (FACS).
Augmentation of hCD8^+ T Cell Differentiation into Effector T Cells. Naïve CD8+ T cells were isolated from human buffy coats using magnetic separation and the appropriate kit from Miltenyi Biotec. Cells were then activated using a cocktail of anti-CD2/anti-CD3/anti-CD28 antibodies. Differentiation of the cells into effector T cells was assessed by determining the levels of IFNγ and GZMB released into the media at 24 and 72 hrs, respectively using appropriate ELISA kits. Cytokine concentrations were normalized per number of cells present and expressed as % Untreated Control.

H3K4me3 = test: Epigenetic modification: H3K4me3 Western immunoblotting in TCR-activated hCD8+ T cells; format: cell-based, human; details: 10 μM, 72 hrs
Experimental: Epigenetic Modifications. The ability of a therapeutic agent to alter acetylation and/or methylation of histones was assessed by Western Immunoblotting. Briefly, immune and other type cells were collected after being exposed to the therapeutic agent or vehicle control for a specific period of time, typically 24-72 hrs. They were then lysed and cell lysates from control and treated cells contained equal amounts of proteins were subjected to SDS-PAGE electrophoresis. The presence of acetylated and methylated histone sites was determined by Western Immunoblotting using appropriate antibodies.
Epigenetic Modification. TCR-activated hCD8^+ T cells were exposed to 0 or 10 μM Compound (6) for 72 hrs prior to lysing. Equal amounts of cell lysates were subjected to gel electrophoresis and Western immunoblotting against trimethylated lysine site 4 of histone 3 (H3K4me3). The experiment also included cell lysates from naïve cells. Image J was used for protein quantification. Western immunoblotting against histone 3 (H3) was also performed for normalization purposes. […] Exposure of the hCD8^+ T cells to 10 μM Compound (6) led to the depletion of trimethylated H3K4. H3K4me3 is commonly associated with activation of transcription.

O=C(O)/C(=C\c1ccc(F)cc1)C(Cc1ccccc1)C(=O)O (centres unmarked) [Compound (6), 2-benzyl-3-[(4-flurophenyl)methylidene]butanedioic acid]
extracellular levels of itaconic acid (IRG1): suppressed | intracellular levels of itaconic acid (IRG1): suppressed | IFNγ (% Control) (hCD8^+ T cells; 1 nM): 129 % Control | IFNγ (% Control) (hCD8^+ T cells; 10 nM): 510 % Control | IFNγ (% Control) (hCD8^+ T cells; 100 nM): 274 % Control | IFNγ (% Control) (hCD8^+ T cells; 10 μM): 370 % Control | IFNγ (% Control) (hCD8^+ T cells; 100 μM): 198 % Control | IFNγ (% Control) (hCD8^+ T cells; 500 μM): 47 % Control | IFNγ synthesis following TCR activation (hCD8^+ T cells; high (>100 μM) concentrations): decrease | synthesis of INFγ following TCR activation (hCD8^+ T cells; low concentrations, 0.1 nM to 100 μM): increased synthesis | trimethylated H3K4 (H3K4me3/H3) (H3K4me3): depletion
